# US20090162313A1, “High-Molecular Weight Conjugate of Podophyllotoxins” (priority 2006, published 2009)
# Key:
# [1] = Relative body weight of tumor-bearing mice, Test Example 3; assay type: in vivo, mouse; conditions: 90 mg/kg once i.v., female CDF1 mice
# Procedure: (§1) Mouse colon cancer, Colon 26, maintained by serial subcutaneous subculture in mice, was minced into about 2-mm square fragments, and the fragments were subcutaneously transplanted on the dorsal part of female CDF1 mice with a trocar. […] The control group means a group to which the drug was not administered. Compound 1 was dissolved in a 5% glucose solution for injection and used. As for […] injection (manufactured by Nippon Kayaku Co., Ltd.) was diluted with a 5% glucose solution for injection and used. After the administration, the major axis (L mm) and the minor axis (W mm) of the tumor were measured using a caliper, and the tumor volume was calculated by the formula: (L×W^2)/2. […] The changes of the body weight during this period of time is also shown in Table 1 as the relative body weight based on the body weight on the day of administration.
# [2] = tested on: Mouse colon cancer, Colon 26; experiment: Antitumor effect of compound 1, subcutaneously transplanted tumor, relative tumor volume; assay type: in vivo; conditions: 90 mg/kg once i.v., female CDF1 mice
# Procedure: as §1
# [3] = Relative body weight of tumor-bearing mice, Test Example 4; assay type: in vivo, mouse; conditions: 15 mg/kg i.v. for 5 consecutive days (total 75 mg/kg), female CDF1 mice
# Procedure: (§2) Mouse colon cancer, Colon 26, maintained by serial subcutaneous subculture in mice, was minced into about 2 mm-square fragments, and the fragments were transplanted subcutaneously on the dorsal part of female CDF1 mice with a trocar. […] The control group means a group to which the drug was not administered. POD, purchased from Sigma-Aldrich Company, was diluted with dimethylsulfoxide and a 5% glucose solution for injection and administered for 5 consecutive days from the administration initiation day. After the administration, the major axis (L mm) and the minor axis (W mm) of the tumor were measured using a caliper, and the tumor volume was calculated by the formula: (L×W^2)/2. […] The changes of the body weight during this period of time is also shown in Table 2 as the relative body weight based on the body weight on the day of administration.
# [4] = tested on: Mouse colon cancer, Colon 26; experiment: Antitumor action of compounds 2 and 3, subcutaneously transplanted tumor, relative tumor volume; assay type: in vivo; conditions: 15 mg/kg i.v. for 5 consecutive days (total 75 mg/kg), female CDF1 mice
# Procedure: as §2
# [5] = day 0 after administration initiation day
# [6] = day 3 after administration initiation day
# [7] = day 5 after administration initiation day
# [8] = day 8 after administration initiation day
Compound,Relative body weight ([1]; day 0 after administration),Relative body weight ([1]; day 4 after administration),Relative body weight ([1]; day 8 after administration),Relative tumor volume ([2]; day 0 after administration),Relative tumor volume ([2]; day 4 after administration),Relative tumor volume ([2]; day 8 after administration),"Relative body weight [3, 5]","Relative body weight [3, 6]","Relative body weight [3, 7]","Relative body weight [3, 8]","Relative tumor volume [4, 5]","Relative tumor volume [4, 6]","Relative tumor volume [4, 7]","Relative tumor volume [4, 8]"
"COc1cc([C@@H]2c3cc4c(cc3[C@@H](O[C@@H]3O[C@@H]5CO[C@@H](C)O[C@H]5[C@H](O)[C@H]3O)[C@H]3COC(=O)[C@H]23)OCO4)cc(OC)c1O [ETP, etoposide]",1.00,0.87,0.97,1.00,1.17,3.79,,,,,,,,
"COc1cc([C@@H]2c3cc4c(cc3[C@H](O)[C@H]3COC(=O)[C@H]23)OCO4)cc(OC)c1OC [POD, podophyllotoxin]",,,,,,,1.00,1.01,0.96,0.98,1.00,1.58,1.79,6.08
